The results in this text go back to patent publication US11339193B2, “CDP protein secretion inhibitors” (KEZAR LIFE SCIENCES, priority 2018, dated 2022).

Numbered stars: 1 amine (or outer) side, 2 acyl side, 3 side chain; on linkers, the order of the positions; unused ones are H or OH. Square brackets hold non-standard residues; d marks the D form. Peptide text beside a SMILES is read from it. Butanoyl(2R-oxy,4-CN) = N#CCC[C@@H](O)C(=O)O; X22 = CCCC[C@@H](C)C[C@H](N[*:1])C(=O)[*:2]; Abu(4,4,4-F3) = N[C@@H](CC(F)(F)F)C(=O)O; NMeAla(cPent) = CN[C@@H](CC1CCCC1)C(=O)O; Ala(cPent) = N[C@@H](CC1CCCC1)C(=O)O; NMeCha = CN[C@@H](CC1CCCCC1)C(=O)O; NMeF = CN[C@@H](Cc1ccccc1)C(=O)O; tBuAla = CC(C)(C)C[C@H](N)C(=O)O; NMeL = CN[C@@H](CC(C)C)C(=O)O; NMeA = CN[C@@H](C)C(=O)O; Nva = CCC[C@H](N)C(=O)O; dLac = C[C@@H](O)C(=O)O; Abu = CC[C@H](N)C(=O)O

The IC50 is the midpoint of a concentration-inhibition curve. By EC50 is commonly meant the concentration giving half of the maximal effect.

Holding throughout (format): cell-based
The test system of assay [1] is TNFα-FL/Gaussia Luciferase. In words: Dox induced TNFα-FL-Gluc assay. Conditions: Flp-In 293 T-REx cells, doxycycline, 24 hours; read-out: TNFa FL Gluc IC50. The text has this: Dox Induced TNFα-FL-Gluc Assay
(§1) Flp-In 293 T-REx™ cells were transfected with pcDNA™5/FRT/TO plasmid inserted with cDNA encoding Gaussia Luciferase fused to the 3′ end of cDNA encoding full length TNFα (amino acids 1-233). Transfected cells were selected for resistance to the selectable markers Hygromycin and Blasticidin to create a stable cell line that contained the TNFα-FL/Gaussia Luciferase cDNA insert whose expression was regulated under the T-REx™ system. The day before assay, cells were trypsinized and plated in 384-well tissue culture plates. The next day, compound dilutions in DMSO/media containing doxycycline were added to the wells and incubated at 37° C., 5% CO2.

Assay [2] deals with PD1-ss+10aa/Gaussia Luciferase. In words: Dox induced PD1-ss-Gluc assay. The conditions noted are these: Flp-In 293 T-REx cells, doxycycline, 24 hours; read-out: PD1ss Gluc IC50.
Excerpt: Dox Induced PD1-ss-Gluc Assay
as §1, with “PD1 signal sequence plus 10 amino” for “full length TNFα (amino”, “(N-[…]-C) (SEQ ID NO:3).” for “1-233).”, “PD1-ss+10aa/Gaussia” for “TNFα-FL/Gaussia”

Assay [3] has as its system NCI-H929 multiple myeloma cell line. In words: H929 assay (cell viability, Celltiter-Glo). The conditions noted are these: Homo sapiens, NCI-H929; 48 hours, cell viability; read-out: H929 EC50. On the procedure: The human multiple myeloma cell line NCI-H929 was cultured in Advanced RPMI 1640 media (Gibco@) supplemented with 6% fetal bovine serum, 2 mM Glutamine, and 1× Penicillin/Streptomycin. On the day of assay, cells were resuspended in RPMI 1640 media supplemented with 10% fetal bovine serum, 2 mM Glutamine, and 1× Penicillin/Streptmycin and plated in 384-well tissue culture plates and treated with compound dilutions in DMSO/media. Plates were incubated at 37° C., 5% CO2 for 48 hours. After 48 hours, Celltiter-Glo@ (Promega) was added to each well and luciferase signal was quantified using Tecan Infinite M1000 Pro for cell viability determination.

Regarding `CCCC[C@@H](C)C[C@@H]1NC(=O)[C@H](CC2CCCCC2)N(C)C(=O)[C@H](CC(C)C)NC(=O)[C@H](CC(C)C)N(C)C(=O)[C@H](CC(C)(C)C)NC(=O)C(CCC#N)OC(=O)[C@H](C)N(C)C1=O` (stereo in doubt) [C-52], the IC50 in assay [1] was 5730 nM; in assay [2] it was 751 nM.
For the compound `CCCC[C@@H](C)C[C@@H]1NC(=O)[C@@H](C)OC(=O)[C@H](C)N(C)C(=O)[C@H](C(C)C)NC(=O)[C@H](Cc2ccccc2)N(C)C(=O)[C@H](CC(C)C)NC(=O)[C@H](CC(C)C)N(C)C1=O` [C-02] (HELM PEPTIDE1{L.[meF].V.[meA].[C[C@@H](O[*:1])C(=O)[*:2]].[CCCC[C@@H](C)C[C@H](N[*:1])C(=O)[*:2]].[meL]}$PEPTIDE1,PEPTIDE1,1:R1-7:R2$$$V2.0), the EC50 in assay [3] is 4060 nM. For the same compound, the 50% inhibitory concentration (IC50) in assay [1] stood at 779 nM; in assay [2], 460 nM.
Taken in the same sequence, the figures for `CCCC[C@@H](C)C[C@@H]1NC(=O)[C@H](Cc2ccccc2)N(C)C(=O)[C@H](CC(C)C)NC(=O)[C@H](CC(C)C)N(C)C(=O)[C@H](CC(F)(F)F)NC(=O)[C@@H](C)OC(=O)[C@H](C)N(C)C1=O` [C-03] (cyclo(L[NMeF][X22][NMeA][dLac][Abu(4,4,4-F3)][NMeL])) were 5070 nM, 525 nM and 385 nM.
Turning to `CCCC[C@@H](C)C[C@@H]1NC(=O)[C@H](Cc2ccccc2)N(C)C(=O)[C@H](CCC)NC(=O)[C@H](CC(C)C)N(C)C(=O)[C@H](C[C@H](C)CCCC)NC(=O)[C@@H](C)OC(=O)[C@H](C)N(C)C1=O` [C-04] (cyclo([NMeA][dLac][X22][NMeL][Nva][NMeF][X22])), in assay [3], the EC50 amounted to 1260 nM. Also, the IC50 stood at 104 nM in assay [1] and 86 nM in assay [2].
Taken in the same sequence, the figures for `CCCC[C@@H](C)C[C@@H]1NC(=O)[C@H](Cc2ccccc2)N(C)C(=O)[C@H](CC)NC(=O)[C@H](CC(C)C)N(C)C(=O)[C@H](C[C@H](C)CCCC)NC(=O)[C@@H](C)OC(=O)[C@H](C)N(C)C1=O` [C-05] (cyclo([Abu][NMeF][X22][NMeA][dLac][X22][NMeL])) were 1190 nM, 115 nM and 75 nM.
Consider `CCCC[C@@H](C)C[C@@H]1NC(=O)[C@H](Cc2ccccc2)N(C)C(=O)[C@H](CC(C)C)NC(=O)[C@H](CC(C)C)N(C)C(=O)[C@H](CC)NC(=O)[C@@H](C)OC(=O)[C@H](C)N(C)C1=O` [C-06] (HELM PEPTIDE1{[Abu].[meL].L.[meF].[CCCC[C@@H](C)C[C@H](N[*:1])C(=O)[*:2]].[meA].[C[C@@H](O[*:1])C(=O)[*:2]]}$PEPTIDE1,PEPTIDE1,1:R1-7:R2$$$V2.0), for which, in assay [3], the EC50 came out at 6710 nM.
`CCCC[C@@H](C)C[C@@H]1NC(=O)[C@H](Cc2ccccc2)N(C)C(=O)[C@H](CC(C)C)NC(=O)[C@H](CC(C)C)N(C)C(=O)[C@H](C(C)C)NC(=O)[C@@H](C)OC(=O)[C@H](C)N(C)C1=O` [C-07] (HELM PEPTIDE1{L.[meF].[CCCC[C@@H](C)C[C@H](N[*:1])C(=O)[*:2]].[meA].[C[C@@H](O[*:1])C(=O)[*:2]].V.[meL]}$PEPTIDE1,PEPTIDE1,1:R1-7:R2$$$V2.0): the EC50 in assay [3] stood at 5550 nM. The IC50 in assay [1] is 1260 nM; in assay [2], 656 nM.
The corresponding values for `CCCC[C@@H](C)C[C@@H]1NC(=O)[C@H](Cc2ccccc2)N(C)C(=O)[C@H](CC(C)C)NC(=O)[C@H](CC(C)C)N(C)C(=O)[C@H](CC(C)C)NC(=O)[C@@H](C)OC(=O)[C@H](C)N(C)C1=O` [C-08] (HELM PEPTIDE1{L.[meF].[CCCC[C@@H](C)C[C@H](N[*:1])C(=O)[*:2]].[meA].[C[C@@H](O[*:1])C(=O)[*:2]].L.[meL]}$PEPTIDE1,PEPTIDE1,1:R1-7:R2$$$V2.0) are 4460 nM, 526 nM and 360 nM.
For `CCCC[C@@H](C)C[C@@H]1NC(=O)[C@H](Cc2ccccc2)N(C)C(=O)[C@H](CC(C)C)NC(=O)[C@H](CC(C)C)N(C)C(=O)[C@H](CC(F)(F)F)NC(=O)[C@@H](CCC#N)OC(=O)[C@H](C)N(C)C1=O` [C-09] (cyclo(L[NMeF][X22][NMeA][Butanoyl(2R-oxy,4-CN)][Abu(4,4,4-F3)][NMeL])), the 50% effective concentration (EC50) in assay [3] was found to be 1820 nM. The IC50 in assay [1] was determined as 158 nM; in assay [2], 114 nM.
`CCCC[C@@H](C)C[C@@H]1NC(=O)[C@H](CC2CCCCC2)N(C)C(=O)[C@H](CC(C)C)NC(=O)[C@H](CC(C)C)N(C)C(=O)[C@H](C[C@H](C)CCCC)NC(=O)[C@@H](CCC#N)OC(=O)[C@H](C)N(C)C1=O` [C-18] (cyclo(L[NMeCha][X22][NMeA][Butanoyl(2R-oxy,4-CN)][X22][NMeL])): the EC50 in assay [3] turned out to be 429 nM. Also, the results for the IC50 in assay [1] and in assay [2] were 84 nM and 37 nM, respectively.
With `CCCC[C@@H](C)C[C@@H]1NC(=O)[C@H](CC2CCCCC2)N(C)C(=O)[C@H](CC(C)C)NC(=O)[C@H](CC(C)C)N(C)C(=O)[C@H](CCC)NC(=O)[C@@H](CCC#N)OC(=O)[C@H](C)N(C)C1=O` [C-19] (cyclo(L[NMeCha][X22][NMeA][Butanoyl(2R-oxy,4-CN)][Nva][NMeL])), the EC50 in assay [3] turned out to be 5150 nM. In addition, the figures for the IC50 in assay [1] and in assay [2] were 1390 nM and 374 nM, respectively.
`CCCC[C@@H](C)C[C@@H]1NC(=O)[C@H](CC2CCCCC2)N(C)C(=O)[C@H](CC(C)C)NC(=O)[C@H](CC(C)C)N(C)C(=O)[C@H](C(C)C)NC(=O)[C@@H](CCC#N)OC(=O)[C@H](C)N(C)C1=O` [C-20] (cyclo(L[NMeCha][X22][NMeA][Butanoyl(2R-oxy,4-CN)]V[NMeL])): in assay [3], the EC50 was 5300 nM. In addition, the IC50 came out at 1680 nM in assay [1] and 432 nM in assay [2].
As to `CCCC[C@@H](C)C[C@@H]1NC(=O)[C@H](CC2CCCCC2)N(C)C(=O)[C@H](CC(C)C)NC(=O)[C@H](CC(C)C)N(C)C(=O)[C@H](CC(C)C)NC(=O)[C@@H](CCC#N)OC(=O)[C@H](C)N(C)C1=O` [C-21] (cyclo(L[NMeCha][X22][NMeA][Butanoyl(2R-oxy,4-CN)]L[NMeL])), the EC50 in assay [3] was 3400 nM. Also, the IC50 turned out to be 716 nM in assay [1] and 212 nM in assay [2].
`CCCC[C@@H](C)C[C@@H]1NC(=O)[C@H](CC2CCCC2)N(C)C(=O)[C@H](CC(C)C)NC(=O)[C@H](CC(C)C)N(C)C(=O)[C@H](C[C@H](C)CCCC)NC(=O)[C@@H](CCC#N)OC(=O)[C@H](C)N(C)C1=O` [C-22] (cyclo(L[NMeAla(cPent)][X22][NMeA][Butanoyl(2R-oxy,4-CN)][X22][NMeL])): in assay [3], the EC50 was found to be 950 nM. In addition, the results for the IC50 in assay [1] and in assay [2] were 236 nM and 115 nM, respectively.
Consider `CCCC[C@@H](C)C[C@@H]1NC(=O)[C@H](CC2=CCCC2)N(C)C(=O)[C@H](CC(C)C)NC(=O)[C@H](CC(C)C)N(C)C(=O)[C@H](C[C@H](C)CCCC)NC(=O)[C@@H](CCC#N)OC(=O)[C@H](C)N(C)C1=O` [C-23], for which the EC50 in assay [3] is 953 nM. For the same compound, the figures for the IC50 in assay [1] and in assay [2] were 88 nM and 66 nM, respectively.
Take `CCCC[C@@H](C)C[C@@H]1NC(=O)[C@@H](CCC#N)OC(=O)[C@H](C)N(C)C(=O)[C@H](CC)NC(=O)[C@H](Cc2ccccc2)N(C)C(=O)[C@H](CC(C)C)NC(=O)[C@H](CC(C)C)N(C)C1=O` [C-25] (HELM PEPTIDE1{[Abu].[meA].[N#CCC[C@@H](O[*:1])C(=O)[*:2]].[CCCC[C@@H](C)C[C@H](N[*:1])C(=O)[*:2]].[meL].L.[meF]}$PEPTIDE1,PEPTIDE1,1:R1-7:R2$$$V2.0): the EC50 in assay [3] was found to be 2360 nM. The IC50 in assay [1] is 376 nM; in assay [2] it was 297 nM.
Turning to `CCCC[C@@H](C)C[C@@H]1NC(=O)[C@H](CC2CCCCC2)N(C)C(=O)[C@H](CC2CCCC2)NC(=O)[C@H](CC(C)C)N(C)C(=O)[C@H](CC(C)C)NC(=O)[C@@H](CCC#N)OC(=O)[C@H](C)N(C)C1=O` [C-54] (cyclo([Ala(cPent)][NMeCha][X22][NMeA][Butanoyl(2R-oxy,4-CN)]L[NMeL])), in assay [2], the IC50 was 2140 nM.
For the compound `CCCC[C@@H](C)C[C@@H]1NC(=O)[C@H](CC2CCCCC2)N(C)C(=O)[C@H](CC(C)(C)C)NC(=O)[C@H](CC(C)C)N(C)C(=O)[C@H](CC(C)C)NC(=O)[C@@H](CCC#N)OC(=O)[C@H](C)N(C)C1=O` [C-63] (cyclo(L[NMeL][tBuAla][NMeCha][X22][NMeA][Butanoyl(2R-oxy,4-CN)])), the IC50 in assay [2] was determined as 3050 nM.
For `CC(C)C[C@@H]1NC(=O)[C@H](Cc2nc(C(C)(C)C)cs2)N(C)C(=O)[C@H](CC(C)C)NC(=O)[C@H](CC(C)C)N(C)C(=O)[C@H](CC(C)C)NC(=O)[C@@H](CCC#N)OC(=O)[C@H](C)N(C)C1=O` [C-68] (HELM PEPTIDE1{L.[meA].[N#CCC[C@@H](O[*:1])C(=O)[*:2]].L.[meL].L.[CN([C@@H](Cc1nc(C(C)(C)C)cs1)C(=O)[*:2])[*:1]]}$PEPTIDE1,PEPTIDE1,1:R1-7:R2$$$V2.0), in assay [3], the EC50 is 11200 nM. The IC50 in assay [2] worked out at 1060 nM.
